Measurements: US20160053227A1, “AGENT FOR INDUCING DIFFERENTIATION OF WHITE ADIPOCYTES INTO BROWN-LIKE ADIPOCYTES” (UHA MIKAKUTO CO., LTD., priority 2013, published 2016)

What was measured:
[1] = test system: 3T3-L1 precursor adipocyte; assay: Example II-3: index gene expression in adipocytes after maturation, with or without adrenaline stimulation, real-time RT-PCR; type: cell-based, mouse; settings: matured cells, 1 μM L-adrenaline for 2 hours; control 3.1 times
Method: Since it was evaluated in Example II-2 whether the derivative-containing composition induces the differentiation from the white adipocytes into the brown-like adipocytes using the cells immediately after the induction of the differentiation, it was evaluated in Example II-3 whether the relevant induced cell maintains the trait of the brown-like adipocytes even after maturation using matured adipocytes. The evaluation was made using as indexes the expression level of each gene of FGF-21, PGC-1α, and cell death-inducing DFFA-like effector a (Cidea) which is a brown-like adipocyte marker gene as well as the expression level of […] gene when adding adrenaline to the adipocyte after maturation based on the understanding that the brown-like adipocyte responds to the adrenaline stimulation thereby increasing the expression level of UCP1 gene, whereby the induction of the differentiation of the white adipocytes into the brown-like adipocytes was confirmed. […]
Based on the Ct values (Threshold Cycle: number of cycles for achieving a certain amplification level (threshold)) of […], FGF-21, PGC-1α, PGC-1β, Cidea, and UCP1 in each cell obtained, the relative value of each gene expression level of FGF-21, PGC-1β, PGC-1α, Cidea, and UCP1 was calculated.

[2] = Physicochemical characteristics: solubility
Text: The physicochemical characteristics of UHA4022 are as follows.

In the case of `CN(CCOc1ccc(CC2SC(=O)NC2=O)cc1)c1ccccn1` (stereo not shown) [rosiglitazone], the “UCP1 gene expression-increasing effect of adrenaline, presence vs absence of adrenaline” value [1] is reported as 6.2 times.
With `Oc1ccc(/C=C\c2c3c(cc4c2C(c2ccc(O)cc2)Cc2cc(O)cc(O)c2-4)-c2c(O)cc(O)cc2CC3c2ccc(O)cc2)cc1` (stereo not shown) [UHA4022] the Solubility in chloroform ([2]; Chloroform) was “Hardly soluble”, the “Solubility in DMSO” value ([2]; DMSO) was “Soluble” and the Solubility in ethanol ([2]; Ethanol) was “Soluble”. The “Solubility in ethyl acetate” value ([2]; Ethyl acetate) was “Hardly soluble”, the Solubility in methanol ([2]; Methanol) was “Soluble” and the Solubility in water ([2]; Water) was “Hardly soluble”.
